Like-named read-outs stand apart in the source and are kept apart here.
Assays:
[1] = biological target: T1, human FXR alpha (NR1H4) (Homo sapiens, UniProt Q96RI1); test: In vitro screening for FXR binding to coactivator TIF2 (LANCE TR-FRET); format: biochemical
T1 construct: human FXR alpha (NR1H4—(Acc. No:AF384555)) encoding amino acids 187–472; made in house; host or cells: E. coli BL21
T1 sequence (Q96RI1 187-472 isoform Q96RI1-2): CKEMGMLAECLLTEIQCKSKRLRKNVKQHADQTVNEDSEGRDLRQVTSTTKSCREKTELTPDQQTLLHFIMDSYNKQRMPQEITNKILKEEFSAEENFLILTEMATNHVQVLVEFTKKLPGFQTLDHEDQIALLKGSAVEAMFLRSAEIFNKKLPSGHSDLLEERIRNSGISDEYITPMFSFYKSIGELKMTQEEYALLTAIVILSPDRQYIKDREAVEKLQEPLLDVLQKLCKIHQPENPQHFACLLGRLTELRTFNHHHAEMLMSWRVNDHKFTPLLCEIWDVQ
T1 sequence (Q15596 548-878 partner limits assumed): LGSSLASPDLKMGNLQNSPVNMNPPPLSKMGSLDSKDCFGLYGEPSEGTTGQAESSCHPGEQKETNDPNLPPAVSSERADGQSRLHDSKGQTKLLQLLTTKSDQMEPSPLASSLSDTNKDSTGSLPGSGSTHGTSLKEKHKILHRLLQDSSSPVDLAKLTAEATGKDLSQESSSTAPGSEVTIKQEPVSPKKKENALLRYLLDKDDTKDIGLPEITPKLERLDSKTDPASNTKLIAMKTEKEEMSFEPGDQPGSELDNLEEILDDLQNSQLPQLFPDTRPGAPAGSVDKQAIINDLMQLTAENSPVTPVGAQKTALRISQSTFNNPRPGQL
Source text: For screening purposes a fragment of the open reading frame of human FXR alpha (NR1H4—(Acc. No:AF384555)) encoding amino acids 187–472 was amplified by standard RT PCR procedures (see FIGS. 2A and 2B; SEQ ID NO. 1 and 2). Starting material was total RNA derived from human liver. The resulting cDNA obtained after reverse transcription was subsequently cloned using the Gateway™ recombination technology (Invitrogen, USA) into the expression plasmid pDest15 (Invitrogen, USA). This construct was used to express a recombinant GST-FXR fusion protein in E.coli (BL21 strain). A pDEST 17 derivative clone harboring an additional sequence encoding amino acids 548–878 of human TIF2 (Acc. No: XM—011633 RefSeq) (see FIGS. 2C and 2D, SEQ ID NO. 3 and 4) was constructed using Gateway™ recombination technology (Invitrogen, USA) in order to obtain a construct which was used to express recombinant His-tagged TIF2 fragment could be expressed in E. coli. For E. coli expression of both constructs, plasmid DNA was transformed into chemically competent E. coli BL21 (Invitrogen, USA) and cells were grown to an OD600 of 0.4–0.7 before expression was induced by addition of 0.5 mM IPTG according instructions of the manufacturer (Invitrogen). After induction for 8 hours at 30° C. cells were harvested by centrifugation for 10 minutes at 5000×g. Fusion proteins were affinity purified using Glutathion sepharose (Pharmacia) or Ni-NTA Agarose (QIAGEN) according to the instructions of the respective manufacturer. Recombinant proteins were dialyzed against 20 mM Tris/HCL pH 7.9; 60 mM KCl; 5 mM MgCl2; 1 mM DTT, 0.2 mM PMSF; and 10% glycerol. The TIF2 fragment was subsequently biotinylated by addition of 40–120 μl of a biotinamidocaproate N-hydroxysuccinimide-ester (Sigma) solution (20 mg/ml in DMSO). Overhead rotating samples were incubated for two hours at room temperature. Unincorporated label was then separated using G25 Gel filtration chromatography (Pharmacia Biotech, Sweden). Protein containing fractions from the column were pooled and tested for activity in the assay as described below.
For screening of compound libraries as provided for by the methods shown below in the examples for substances which influence the FXR/Tif 2 interaction, the Perkin Elmer LANCE technology was applied. This method relies on the binding dependent energy transfer from a donor to an acceptor fluorophore attached to the binding partners of interest. For ease of handling and reduction of background from compound fluorescence LANCE technology makes use of generic fluorophore labels and time resolved detection (for detailed description See Hemmilä I, Blomberg K and Hurskainen P, Time-resolved resonance energy transfer (TR-FRET) principle in LANCE, Abstract of Papers Presented at the 3rd Annual Conference of the Society for Biomolecular Screening, Sep., California (1997)).
For screening, 20–200 ng of biotinylated Tif 2 fragment and 10–200 ng of GST-FXR fragment were combined with 0.5–2 nM LANCE Eu-(W1024) labeled anti-GST antibody (Perkin Elmer) and 0.5–2 μg of Highly fluorescent APC-labeled streptavidin (Perkin Elmer) in the presence of 50 μM of individual compounds to be screened in a total volume of 25 μl of 20 mM Tris/HCl pH 7.9; 60 mM KCl; 5 mM MgCl2; and 160 ng/μl BSA. DMSO content of the samples was kept below 4%. Samples were incubated for a minimum of 60 minutes in the dark at room temperature in FIA-Plates black 384well med. binding (Greiner).
The LANCE signal was detected by a Perkin Elmer VICTOR2V™ Multilabel Counter applying the detection parameters listed in Table 3, below. The results were visualized by plotting the ratio between the emitted light at 665 nm and at 615 nm. For every batch of recombinant proteins amount of proteins and labeling reagents giving the most sensitive detection of hits was determined individually by analysis of dose response curves for chenodeoxycholic acid.

[2] = biological target: T2, FXR (Homo sapiens, UniProt Q96RI1); test: FXR-mediated transactivation, luciferase reporter in stable HEK293FXR reporter cell line; format: cell-based; conditions: HEK293FXR reporter cells, 16 hours
T2 construct: expressed in transfected cells
T2 sequence (Q96RI1 1-472 isoform Q96RI1-2): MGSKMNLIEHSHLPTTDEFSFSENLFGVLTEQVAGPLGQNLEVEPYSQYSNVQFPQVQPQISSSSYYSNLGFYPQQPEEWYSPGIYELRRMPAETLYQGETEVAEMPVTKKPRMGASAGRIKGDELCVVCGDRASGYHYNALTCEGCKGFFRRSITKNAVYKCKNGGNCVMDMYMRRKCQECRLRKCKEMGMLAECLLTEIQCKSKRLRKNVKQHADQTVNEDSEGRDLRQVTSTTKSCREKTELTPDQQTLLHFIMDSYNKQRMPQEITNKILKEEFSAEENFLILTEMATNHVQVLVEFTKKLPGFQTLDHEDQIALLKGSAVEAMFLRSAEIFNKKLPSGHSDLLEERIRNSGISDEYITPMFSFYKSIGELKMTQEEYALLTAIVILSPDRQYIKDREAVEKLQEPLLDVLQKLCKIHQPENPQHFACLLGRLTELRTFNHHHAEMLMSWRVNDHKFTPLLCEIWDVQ
Source text: A compound according to the invention (experiments shown were done with MOLSTRUCTURE LN 0000006734; see Table 1 for structural formula) can mediate transactivation of FXR-mediated transcription in a HEK293 reporter cell line. […] The full length human FXR (accession U68233) and the full length human RXRα (accession P19793) were cloned into the […]30 applying the manufacturer protocols for the GatewayTM system (Invitrogen). The FXR response elements were cloned (upper case). [NT] ID NO. 5) was obtained from the human IBAB-P promoter (Grober et al 1999, JBC 274, pp. 29749-29754). A stable clone was selected and seeded at a density of 5×10^4 cells per well in 48 well plates. […] Variations of duplicate measurements are within 20%.

[3] = average of multiple experiments, read-out: EC50 AVG

## CC(C)c1onc(-c2c(Cl)cccc2Cl)c1COc1ccc2cc(C(=O)O)ccc2c1 [LN0000000169]
[1]; [3]
  EC50: 2600 nM
[1]
  EFFIC AVG (average efficacy, % activity relative to CDCA control agonist): 134%
[2]; 0.08 μM
  Luciferase reporter activity: 1630.0
[2]; 0.4 μM
  Luciferase reporter activity: 2754.0
[2]; 1 μM
  Luciferase reporter activity: 4600.0
[2]; 2 μM
  Luciferase reporter activity: 5775.7
[2]; 10 μM
  Luciferase reporter activity: 6829.3
[2]; 50 μM
  Luciferase reporter activity: 13375.7

## CC(C)c1onc(-c2c(Cl)cccc2Cl)c1COc1ccc(Oc2ccc(C(=O)O)cc2)cc1 [LN0000006734]
[1]; [3]
  EC50: 600 nM
[1]
  EFFIC AVG (average efficacy, % activity relative to CDCA control agonist): 85%
[2]; 0.08 μM
  Luciferase reporter activity: 2153.0
[2]; 0.4 μM
  Luciferase reporter activity: 2991.5
[2]; 1 μM
  Luciferase reporter activity: 5360.5
[2]; 2 μM
  Luciferase reporter activity: 6330.5
[2]; 10 μM
  Luciferase reporter activity: 8523.5
[2]; 50 μM
  Luciferase reporter activity: 13309.5
[2]; read-out: EC50 of dose-dependent transactivation of the reporter gene luciferase by FXR
  EC50: ~1000 nM

## COC(=O)CCc1ccc(OCc2c(-c3c(Cl)cccc3Cl)noc2C(C)C)cc1 [LN0000006764]
[1]; [3]
  EC50: 720 nM
[1]
  EFFIC AVG (average efficacy, % activity relative to CDCA control agonist): 108%

## CC(C)c1onc(-c2c(Cl)cccc2Cl)c1COc1ccc(CCC(=O)O)cc1 [LN0000006765]
[1]; [3]
  EC50: 430 nM
[1]
  EFFIC AVG (average efficacy, % activity relative to CDCA control agonist): 115%

## CC(C)c1onc(-c2c(Cl)cccc2Cl)c1COc1ccc(OCC(=O)O)cc1 [LN0000006767]
[1]; [3]
  EC50: 230 nM
[1]
  EFFIC AVG (average efficacy, % activity relative to CDCA control agonist): 117%

## CC(C)c1onc(-c2c(Cl)cccc2Cl)c1COc1ccc(/C=C/C(=O)O)c(Cl)c1 [LN0000006772]
[1]; [3]
  EC50: 50 nM
[1]
  EFFIC AVG (average efficacy, % activity relative to CDCA control agonist): 100%

## CC(C)c1onc(-c2c(Cl)cccc2Cl)c1COc1ccc(OCC(=O)O)cc1 [formula (II)]
[1]; read-out: EC50 at FXR (half-maximal effective concentration)
  EC50: 230 nM

## CC(C)c1onc(-c2c(Cl)cccc2Cl)c1COc1ccc(Oc2ccc(C(=O)O)cc2)cc1 [formula III]
[1]
  agonist of the NR1H4 human nuclear receptor: active as agonist

## CC(C)c1onc(-c2c(Cl)cccc2Cl)c1COc1ccc(CCC(=O)O)cc1 [formula IV]
[1]
  agonist of the NR1H4 human nuclear receptor: active as agonist

## CC(C)c1onc(-c2c(Cl)cccc2Cl)c1COc1ccc(/C=C/C(=O)O)c(Cl)c1 [formula V]
[1]
  agonist of the NR1H4 human nuclear receptor: active as agonist

Source: US7034046B2, “NR1H4 nuclear receptor binding compounds” (Phenex Pharmaceuticals AG, priority 2001, dated 2006)
